The values below come from patent US20130191933A1, “METHODS OF TREATING PAIN AND MORPHINE TOLERANCE VIA MODULATION OF HEDGEHOG SIGNALLING PATHWAY” (BOARD OF REGENTS, THE UNIVERSITY OF TEXAS SYSTEM, priority 2010, published 2013).

Entries after “also recorded” stand apart in the source; their conditions may differ.

The test system of test [1] is Gli-mediated transcription. As to conditions: cited from earlier work; for Gli-mediated transcription: in a variety of cell types (Cur-61414: cell and tissues types; Robotnikinin: also synthetic human tissue).
Another test addresses Smo (Homo sapiens, UniProt Q99835). As to conditions: cited from earlier work.
For test [2], the system named is Glil,2-mediated transcription in HaCat cells. As to conditions: cited from earlier work.
Test [3] relates to Ptchl and BCL2 in HaCaT cells. As to conditions: cited from earlier work.
Test [4] concerns rats with complete Freund's adjuvant (CFA) injection (inflammatory pain). Briefly: Inflammatory pain paradigm: CFA hindpaw injection, thermal hyperalgesia by paw withdrawal latency (PWL). Type of test: in vivo, Sprague-Dawley rats. As to conditions: rats after CFA hindpaw injection; for analgesic effect on thermal hyperalgesia (paw withdrawal latency, PWL): intrathecal (lumbar puncture) drug, Days 1-4; for development of tolerance to the analgesic effect (PWL): repeated intrathecal dosing. As for the experimental part: Animals underwent complete Freund's adjuvant (CFA) injection under anesthesia. Hyperalgesia was then measured using withdrawal latency of the paw to a thermal stimulus (PWL). […] Drugs were administered using lumbar puncture under anesthesia.
Hyperalgesia was then measured using withdrawal latency of the paw to a thermal stimulus (PWL). […] Drugs were administered using lumbar puncture under anesthesia..
To test this, we examined the effects of pharmacologically blocking Smoothened activity in rodent pain models. Injection of Complete Freund's Adjuvant (CFA) into the rat hindpaw causes local inflammation, swelling, and decreased nociceptive thresholds, Stein, C., et al., A. Unilateral inflammation of the Hindpaw in rats as a Model of Prolonged Noxious Stimulation: Alterations in Behavior and Nociceptive Thresholds, Pharmacol Biochem Behav 31, […] (1988). FIG. 11 provides an inflammatory pain paradigm. Here, the hindpaws were injected with saline (sham, n=6), or CFA. […] Similarly, FIG. 10 provides a neuropathic pain paradigm. […] Animals received daily intrathecal injections of vehicle (n=3) or drugs (CP, n=6; MS, n=6; or MS+CP, n=5). Mechanical allodynia was assessed using Von Frey filaments. […] All data are+/−S.E.M.
Animals: Sprague-Dawley rats (male, […]) were housed three to a cage with water and food ad libitum and kept in temperature controlled rooms on a 12:12 hour light-dark cycle, with the dark cycle beginning at 7:00 pm. Animals were habituated to the testing environment for one week prior to testing and all tests were performed in the morning. All protocols were approved by our Institutional Animal Care and Use Committee.
Drugs and Intermittent Lumbar Puncture: Rats were anesthetized with 2% isoflurane in oxygen. The lumbar region was shaved, prepared with Betadine solution and the intervertebral spaces widened by placing the animal on a plexiglas tube.
Complete Freund's Adjuvant (CFA) […]: Under isoflurane […], the plantar surface of the left hindpaw was cleansed and 100 μl of CFA (Sigma, St. Louis, Mo.) injected using a 25-gauge needle. Animals recovered for 24 hours prior to analgesic testing.
Paw Withdrawal Latency (PWL): PWL was measured by placing the animals in Plexiglas cages (9×22×25 cm.) on a modified Hargreaves Device, consisting of a glass surface maintained at 30° C. A stimulus lamp was focused on the tail with three measurements taken on different portions of the tail. An abrupt flick of the tail secondary to the thermal stimulus was sensed by photodiodes, and this served to terminate the stimulus and stop the timer. Animals were habituated to the device for one week prior to testing and for 30 min before each test session. The intensity of the thermal stimulus used in the TFL test was adjusted so baseline TFL was between 10-12 seconds to 20 second was used as an automatic cutoff time to avoid paw damage. The TFLs at the time points of 15, 30, and 45 minutes post-injection were measured and compared (n=6-8 per group).

The test system of test [5] is rats with sciatic nerve ligation (neuropathic pain). Briefly: Neuropathic pain paradigm: sciatic nerve ligation, mechanical allodynia by Von Frey filaments. Type of test: in vivo, Sprague-Dawley rats. As to conditions: rats two weeks after sciatic nerve ligation; daily intrathecal (lumbar puncture) drug; sub-clinical/low dose of morphine. The method, then:
Animals underwent sciatic nerve ligation as described (Chung et al.), and were then allowed to recover for two weeks. Allodynia was measured using mechanical withdrawal threshold (Von Frey hairs). […] Drugs were administered using lumbar puncture under anesthesia.
Hh signaling modulates neuropathic pain, inflammatory pain, and opioid tolerance in rats. […] With regards to neuropathic pain, animals underwent sciatic nerve ligation as previously described in Chung et al., and were then allowed to recover for two weeks. Allodynia was measured by assessing the withdrawal threshold to a mechanical stimulus (Von Frey hairs). […] Drugs were administered using lumbar puncture under anesthesia.
To test this, we examined the effects of pharmacologically blocking Smoothened activity in rodent pain models. Injection of Complete Freund's Adjuvant (CFA) into the rat hindpaw causes local inflammation, swelling, and decreased nociceptive thresholds, Stein, C., et al., A. Unilateral inflammation of the Hindpaw in rats as a Model of Prolonged Noxious Stimulation: Alterations in Behavior and Nociceptive Thresholds, Pharmacol Biochem Behav 31, […] (1988). FIG. 11 provides an inflammatory pain paradigm. Here, the hindpaws were injected with saline (sham, n=6), or CFA. […] Similarly, FIG. 10 provides a neuropathic pain paradigm. […] Mechanical allodynia was assessed using Von Frey filaments. […]

Smo, sequence (Q99835 28-787): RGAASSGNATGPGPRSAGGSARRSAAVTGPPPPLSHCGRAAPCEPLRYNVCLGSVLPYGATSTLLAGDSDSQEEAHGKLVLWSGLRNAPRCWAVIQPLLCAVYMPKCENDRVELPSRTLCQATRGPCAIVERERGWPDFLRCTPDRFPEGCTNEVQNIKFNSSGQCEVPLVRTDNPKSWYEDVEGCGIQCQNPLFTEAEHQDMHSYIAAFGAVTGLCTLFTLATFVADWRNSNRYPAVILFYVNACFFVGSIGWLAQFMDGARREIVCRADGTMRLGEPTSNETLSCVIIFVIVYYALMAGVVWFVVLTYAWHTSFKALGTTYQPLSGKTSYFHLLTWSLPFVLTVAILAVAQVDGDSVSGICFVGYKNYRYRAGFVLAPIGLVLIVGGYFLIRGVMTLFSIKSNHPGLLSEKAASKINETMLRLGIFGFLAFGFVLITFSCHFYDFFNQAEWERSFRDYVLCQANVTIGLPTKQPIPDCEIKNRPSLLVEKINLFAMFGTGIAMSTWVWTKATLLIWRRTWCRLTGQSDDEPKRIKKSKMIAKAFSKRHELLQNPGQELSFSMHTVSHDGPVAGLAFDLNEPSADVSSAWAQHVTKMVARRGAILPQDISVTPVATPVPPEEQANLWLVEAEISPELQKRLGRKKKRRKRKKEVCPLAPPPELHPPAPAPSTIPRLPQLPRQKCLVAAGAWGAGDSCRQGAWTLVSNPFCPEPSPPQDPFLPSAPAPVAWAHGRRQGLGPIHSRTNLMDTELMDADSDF

Consider `CC(C)CCC[C@](C)(O)[C@H]1CC[C@H]2[C@@H]3CC=C4C[C@@H](O)CC[C@]4(C)[C@H]3CC[C@@]21C` [20α-Hydroxycholesterol], for which, in test [1], the Gli-mediated transcription result is recorded as “Activates Gli-mediated transcription in a variety of cell types”. In addition, the “targeting / binding of Smo” value on Smo is on record as “Does not bind directly to Smo”.

Regarding `CC(C)CC[C@H](O)[C@@H](C)[C@H]1CC[C@H]2[C@@H]3CC=C4C[C@@H](O)CC[C@]4(C)[C@H]3CC[C@]12C` [22(S)-Hydroxycholesterol], in test [1], the Gli-mediated transcription result is “Activates Gli-mediated transcription in a variety of cell types”. Further, the “targeting / binding of Smo” value at Smo is “Does not bind directly to Smo”.

`CC(C)[C@@H](O)CC[C@@H](C)[C@H]1CC[C@H]2[C@@H]3CC=C4C[C@@H](O)CC[C@]4(C)[C@H]3CC[C@]12C` [24(S)-Hydroxycholesterol]: in test [1], the Gli-mediated transcription entry was “Activates Gli-mediated transcription in a variety of cell types”. The “targeting / binding of Smo” value on Smo was “Does not bind directly to Smo”.

Regarding `C[C@H](CCCC(C)(C)O)[C@H]1CC[C@H]2[C@@H]3CC=C4C[C@@H](O)CC[C@]4(C)[C@H]3CC[C@]12C` [25-Hydroxycholesterol], the Gli-mediated transcription entry in test [1] is “Activates Gli-mediated transcription in a variety of cell types”. Also, the “targeting / binding of Smo” value at Smo is on record as “Does not bind directly to Smo”.

For `COc1cccc(CN(C(=O)CC(C)(C)C)[C@H]2C[C@@H](C(=O)N3CCNCC3)N(Cc3ccc4c(c3)OCO4)C2)c1` [Cur-61414], the “targeting / binding of Smo” value at Smo is reported as “Targets Smo”.

Consider `c1cc(-c2sc(-c3ccncc3)c(-c3ccncc3)c2-c2ccncc2)ccn1` [GANT58], for which, in test [1], the “site of action in the pathway” value is “Acts downstream of Smo and Sufu”; the Gli-mediated transcription result is “Represses Gli-medicated transcription in a variety of cell types”.

With `CN(C)c1ccccc1CN1CCCN(Cc2ccccc2N(C)C)C1c1ccncc1` [GANT61], in test [1], the “site of action in the pathway” value was “Acts downstream of Smo and Sufu”; the Gli-mediated transcription entry is listed as “Represses Gli-medicated transcription in a variety of cell types”.

Turning to `CS(=O)(=O)c1ccc(C(=O)Nc2ccc(Cl)c(-c3ccccn3)c2)c(Cl)c1` [GDC-0449], the Gli-mediated transcription result in test [1] is given as “Represses Gli-medicated transcription in a variety of cell types”. For the same molecule, the “targeting / binding of Smo” value on Smo is reported as “Targets Smo”.

As for `CC1=C2C[C@H]3[C@@H](CC[C@@H]4C[C@H](NS(C)(=O)=O)CC[C@@]43C)[C@@H]2CC[C@@]2(C1)O[C@@H]1C[C@H](C)CN[C@H]1[C@H]2C` [IPI-926], the Gli-mediated transcription result in test [1] is recorded as “Represses Gli-medicated transcription in a variety of cell types”. Moreover, the “targeting / binding of Smo” value on Smo was “Targets Smo”.

Regarding `CC1=C2C[C@H]3[C@@H](CC=C4CC(=O)CC[C@@]43C)[C@@H]2CC[C@]12O[C@@H]1C[C@H](C)CN(CCNC(=O)CCCCCNC(=O)CCc3ccccc3)[C@H]1[C@H]2C` [KAAD-cyclopamine], on Smo, the “targeting / binding of Smo” value is “target Smo”.

As for `C[C@]12C(=O)C=CCC1=CC[C@@H]1[C@@H]2CC[C@]2(O)C(=O)O[C@@]3(C)[C@H]4C[C@]5(C)[C@@H](CO[C@@]16O[C@@]32[C@H]5C6=O)C(=O)O4` [Physalin B], the “Glil,2-mediated transcription” value in test [2] is reported as “Inhibits Glil,2-mediated transcription in HaCat cells”. Besides, the “transcription of Ptchl and BCL2” value in test [3] was “Inhibits transcription of Ptchl and BCL2 in HaCaT cells”.

Regarding `C[C@@]12C[C@H]3OC(=O)[C@@H]1CO[C@]14O[C@]5([C@H]2C1=O)[C@@](O)(CC[C@H]1[C@H]4C[C@H]2O[C@]24CC=CC(=O)[C@]14C)C(=O)O[C@@]35C` [Physalin F], in test [2], the “Glil,2-mediated transcription” value is recorded as “Inhibits Glil,2-mediated transcription in HaCat cells”. Besides, in test [3], the “transcription of Ptchl and BCL2” value is “Inhibits transcription of Ptchl and BCL2 in HaCaT cells”.

For `c1ccc2c(Oc3nc(Nc4ccc(N5CCOCC5)cc4)c4ncn(C5CCCCC5)c4n3)cccc2c1` [Purmorphamine], in test [1], the Gli-mediated transcription entry is reported as “Activates Gli-mediated transcription in a variety of cell types”. For the same molecule, the “targeting / binding of Smo” value on Smo was “Binds Smo and competes directly with cyclopamine-Smo”.

`CNC1CCC(N(Cc2cccc(-c3ccncc3)c2)C(=O)c2sc3ccccc3c2Cl)CC1` (centres unmarked) [SAG]: the Gli-mediated transcription entry in test [1] is “Activates Gli-mediated transcription in a variety of cell types”. Also, the “targeting / binding of Smo” value on Smo was “Binds Smo and competes directly with cyclopamine-Smo”.

`Cc1nn(-c2ccccc2)c(C)c1/C=N/N1CCN(Cc2ccccc2)CC1` [SANT1]: in test [1], the Gli-mediated transcription result is recorded as “Represses Gli-medicated transcription in a variety of cell types”. On Smo, the “targeting / binding of Smo” value is “Targets Smo”.

For the molecule `CCOc1cc(C(=O)Nc2ccc(Cl)c(-c3nc4ccccc4[nH]3)c2)cc(OCC)c1OCC` [SANT2], in test [1], the Gli-mediated transcription entry is “Represses Gli-medicated transcription in a variety of cell types”. In addition, on Smo, the “targeting / binding of Smo” value was “Targets Smo”.

Take `CCc1ccc(-c2ccc(/C=C/C(=O)N3CCCCC3)cc2)nc1` [SANT4]: the Gli-mediated transcription result in test [1] is on record as “Represses Gli-medicated transcription in a variety of cell types”. For the same molecule, the “targeting / binding of Smo” value on Smo was “Targets Smo”.

Consider `O=C1NCc2c1c1c3ccccc3[nH]c1c1[nH]c3ccccc3c21` [Staurosporinone], for which the “Glil,2-mediated transcription” value in test [2] was “Inhibits Glil,2-mediated transcription in HaCat cells”. Further, in test [3], the “transcription of Ptchl and BCL2” value is “Inhibits transcription of Ptchl and BCL2 in HaCaT cells”.

`C/C1=C\CC(C)(C)/C=C/C(=O)/C(C)=C/CC1` [Zerumbone]: the “Glil,2-mediated transcription” value in test [2] was “Inhibits Glil,2-mediated transcription in HaCat cells”. Further, the “transcription of Ptchl and BCL2” value in test [3] is “Inhibits transcription of Ptchl and BCL2 in HaCaT cells”.

As for `CN1CC[C@]23c4c5ccc(O)c4O[C@H]2[C@@H](O)C=C[C@H]3[C@H]1C5` [morphine], in test [4], the “analgesic effect on thermal hyperalgesia (paw withdrawal latency, PWL)” value was “caused analgesia” and the “development of tolerance to the analgesic effect (PWL)” value is “tolerance developed with repeated dosing”. Also, in test [4] (listed as Morphine), the “analgesic effect on thermal hyperalgesia (paw withdrawal latency, PWL)” value was “exhibited analgesic effects” and the “development of tolerance to the analgesic effect (PWL)” value is recorded as “tolerance developed rapidly”. For the same molecule, the “analgesic effect on mechanical allodynia (mechanical withdrawal threshold, Von Frey)” value in test [5] was “Neither morphine or cyclopamine had analgesic effects; also recorded: Neither a sub-clinical dose of morphine nor cyclopamine had analgesic effects; also recorded: neither cyclopamine nor a low dose of morphine had analgesic effects alone”.
